Assay: Human HepG2 cell viability assay in 384 well format
Format: toxicity, cell-based
Parameters: dose 125 nL, time 70.5 hour; concentration not given beside the values
Settings: HepG2 cells, read-out: Inhibition

Row | Compound | cytotoxicity at 70.5 h
1 | CCS(=O)(=O)N1C[C@@H](Oc2ccccn2)[C@H]2OCCC[C@H]21 | 25.1%
2 | CCCc1nc(C(C)(C)NC(=O)C2CC(=O)N(CC3CC3)C2)no1 (stereo unspecified) | -6.06%
3 | CSCCC(Nc1nc(C)cc(C)n1)C(=O)NC1CCCC1 (stereo unspecified) | -12.6%
4 | Cc1nc(CN2CCCN(CCOc3cccc(C#N)c3)CC2)no1 | 38.4%
5 | CCC1CCCCN1CCc1ccncc1 (stereo unspecified) | 29.9%
6 | Cc1cc(CN(C)Cc2ncc(-c3ccccc3)o2)no1 | -0.145%
7 | CCCN1C(=O)C2(CCCCC2)NC1c1cn(C)c(=O)n(C)c1=O (stereo unspecified) | -6.69%
8 | CCC(=O)Nc1ccc2c(c1)C1(CCOCC1)CN2CCOC | 13.5%
9 | O=C(Cn1c(=O)nc2n1C(=O)N(c1ccccc1)C2)Nc1ccccc1 | -7.97%
10 | Cc1csc2ncnc(N3CCCC(Cn4cc(C(C)(C)O)nn4)C3)c12 (stereo unspecified) | -6.36%
11 | O=C1CC(N(C(=O)Cc2csc(-c3ccccc3)n2)C2CC2)C(=O)N1 (stereo unspecified) | -1.89%
12 | O=C(Cc1ccco1)N1CCC2(CCOCC2COCC2CC2)CC1 (stereo unspecified) | -4.14%
13 | O=C(Cn1nnc(-c2ccc(F)cc2)n1)N1CCOCC(O)C1 (stereo unspecified) | -1.8%
14 | O=C(c1ccc[nH]1)N1CCc2ccc(S(=O)(=O)N3CCOCC3)cc2C1 | 3.25%
15 | COc1cc2cc(C(=O)NCC(=O)O)n(C)c2c(OC)c1OC | 31.9%
16 | CCOc1cc(C(=O)N2CCCC(c3noc(C)n3)C2)ccc1OC (stereo unspecified) | -4.06%
17 | CCOc1ccccc1OC1CCN(C(=O)c2cnns2)CC1 | -3.73%
18 | CC(Cc1cn(CCc2n[nH]c(=O)[nH]2)nn1)c1ccccc1 (stereo unspecified) | -7.35%
19 | CN1CCCCC12CCN(C(=O)c1cccn1C)CC2 | -7.36%

Row | Compound | cytotoxicity at 70.5 h
20 | COCC(=O)NCCn1ccc2c(OC)cccc21 | -6.28%
21 | Fc1ccccc1NCc1nc2n(n1)CCCCC2 | -19.3%
22 | CC(C)(C)c1nc(CC(=O)NC2CCN(C3CC3)C2)cs1 (stereo unspecified) | -6.08%
23 | Cn1c(N)c2c(=O)n(C)c(-c3ccc(Cl)cc3Cl)cc2c(C#N)c1=O | -4.83%
24 | Cc1cc(C)nc(NCCCC(=O)NCCn2ccc3ccccc32)n1 | -30.2%
25 | Cc1ccc(NC2CCN(C(=O)COCC3CC3)CC2)nn1 | -2.64%
26 | O=C(Nc1ccc2c(ccn2CCN2CCOCC2)c1)c1ccncc1 | -1.62%
27 | O=C(c1ccc(O)cc1)N1CCN(C(=O)c2ccc3c(c2)COC3)CC1 | 2.44%
28 | O=c1ccc(-c2cccs2)nn1CN1CCN(Cc2ccccc2)CC1 | -13.1%
29 | O=C1CCC2(CCN(Cc3cscn3)CC2)CN1[C@H]1CC[C@H](O)CC1 | -13.1%
30 | CCCc1n[nH]c(C2CN(C(=O)c3ccc4c(c3)COC4)CCO2)n1 (stereo unspecified) | -4.22%
31 | Cn1cc(CNCCc2cccnc2)c(-c2cccnc2)n1 | 22.8%
32 | Cc1ncc2c(n1)CN(Cc1nc(-c3ccsc3)oc1C)CC2 | -15.2%
33 | Cc1cccc(NC(=O)N2CCOCC(CN(C)C)C2)c1C (stereo unspecified) | -6.8%
34 | COc1nc2c(cc1C(=O)N1CCCCC1c1ccccn1)CCC2 (stereo unspecified) | -6.36%
35 | COCCCn1ccc(NC(=O)NCCCNc2ccccc2)n1 | -3.49%
36 | CCOc1ccc(C(=O)N(C)Cc2nccn2CC(F)(F)F)cc1 | -2.52%
37 | CN(CCc1ccccc1)C(=O)c1cc(CN2CCC(O)CC2)on1 | -5.34%
38 | COc1ccc(C(O)CNC(=O)Nc2cc(C)nn2C)cc1 (stereo unspecified) | 25.3%

Row | Compound | cytotoxicity at 70.5 h
39 | COc1cccc(CN2CCC(c3cc(O)nc(C)n3)C2)c1 (stereo unspecified) | -3.89%
40 | Cc1cc(C)c2cc(CNCc3ccc(C)o3)c3nn(C)c(=O)n3c2c1 | -5.87%
41 | CCCOc1cc(C)ccc1NC(=O)N(C)C | 4.68%
42 | CCn1nc(Br)nc1Sc1ccccc1NC(C)=O | -0.88%
43 | Cc1noc(CCCC(=O)NCC(c2ccco2)N2CCCCC2)n1 (stereo unspecified) | -3%
44 | NC(=O)C1CCN(C(=O)c2ccn(-c3cccc(F)c3)n2)C1 (stereo unspecified) | -19.8%
45 | Cc1ccc(C(=O)N2CCCS2(=O)=O)cc1Cl | -19.9%
46 | Cc1nc(CN2C(=O)C[C@H]3[C@H]2CCN3C2CCOCC2)cs1 | -2.79%
47 | O=C(N1CCOCC1)[C@@]12CCO[C@@H]1CCN(C1CCCCC1)C2 | 47.3%
48 | CCc1cc(=O)[nH]c2nnc(SCC(=O)NC(C)C)n12 | 17.6%
49 | O=C(O)c1ccc(S(=O)(=O)Nc2ccc(Cl)c(F)c2)c(F)c1 | -5.1%
50 | Cc1ccccc1NC(=O)CCNC(=O)c1ccoc1 | 2.88%
51 | CC(C)C(=O)N1CCN(C(=O)c2cc(C(C)C)no2)[C@H]2CS(=O)(=O)C[C@H]21 | -0.523%
52 | CN(CC(F)(F)F)C(=O)CNC(=O)Cc1ccccc1O | 5.05%
53 | OCCN1CCC(Cc2nccs2)CC1 | 1.19%
54 | CCc1ccccc1OCC(=O)N1CCOCC1c1ncon1 (stereo unspecified) | 28.4%
55 | CNc1nc(CNC(=O)Nc2cccc(CN(C)C)c2)cs1 | 0.614%
56 | COc1ccc(Cn2cc(C(=O)N(C)Cc3ccon3)nn2)cc1 | -3.92%

— ChEMBL document CHEMBL3507680, “University of Dundee, Gates Library screen for HepG2 cell viability”
